# Reference: US8101389B2, “Bacterial glutamine synthetases and methods of use” (Athenix Corp, priority 2006, dated 2012)
# “Also recorded” adds a separate entry of the source.
# Experiments:
# [1] = system: E. coli DH5α cells with TKH3; assay: growth of DH5α with TKH3 on M63 minimal plates with glufosinate; format: cell-based; conditions: 20 mM glufosinate
# Experimental: To obtain the gene(s) responsible for the strain's resistance to glufosinate, a small insert plasmid genomic library was prepared from strain ATX 20345. Genomic DNA was extracted from a fresh, overnight LB culture using SDS, proteinase K cell lysis followed by CTAB/NaCl, phenol-chloroform extractions. Partial digests were performed on the genomic DNA using 0.1 units Sau3A I at 37° C. for 30 minutes followed by the addition of EDTA and incubation at 65° C. for 20 minutes to halt the reaction. Resultant DNA was approximately 4-12 kb in size. The DNA was gel purified, treated with T4 polynucletide kinase, then ligated into BamH I digested pUC18 vector. Ligations were transformed into DH5a and plated directly on M63 minimal media plates containing 20 mM glufosinate, 100 μg/ml carbenicillin, and 0.1 mM IPTG. After several days, 4 colonies had appeared, tentatively named TKH1-4. They were grown up and plasmid DNA was isolated and analyzed by digestion with EcoR I+ Hind III, and Pst I/Sac Ito compare inserts. Though all four clones contained inserts, TKH2 and TKH3 were identical by restriction digest analysis, and both contained inserts of approximately 4.9 kb.
# To reconfirm that TKH2 and TKH3 confer resistance to 20 mM glufosinate, the purified plasmids were retransformed into DH5α cells. pUC18 was retransformed as a negative control. […]
# [2] = system: E. coli cells with AGS1 variant AGS1m20, F81S, P185S, H212M, V214H, G218S, I303N, SEQ ID NO:40; assay: growth of E. coli on glufosinate plates, ags1m20; format: cell-based
# Experimental: Clones expressing AGS1m17, AGS1m18, AGS1m19, or AGS1m20 were all found to be able to grow on plates containing 375 mM glufosinate, whereas no growth of clones expressing AGS1m16 was observed on plates containing 375 mM glufosinate.
# [3] = system: E. coli cells with AGS1 variant AGS1m1 (pAX3421), V39I, V214M, SEQ ID NO:4; assay: growth of E. coli on glufosinate plates, ags1m1; format: cell-based
# Experimental: Mutants of the bacterial glutamine synthetase gene ags1 (SEQ ID NO:1) were created by error-prone mutagenesis using the GENEMORPH® Random Mutagenesis kit, and also using oligo-directed mutagenesis as known in the art. However, many methods are available for creating libraries of mutants. The resulting mutants were cloned into a pUC19 vector, electroporated into either XL-1 or DH5 alpha E. coli cells, and selected for growth on M63+ agar media containing antibiotic and 2, 10, or 20 mM glufosinate. Twenty-two clones were identified as growing on 20 mM glufosinate, and picked for further analysis.
# ags1m2 was mutagenized by error-prone mutagenesis using GENEMORPH® II Random Mutagenesis kit (Stratagene) according to manufacturer's instructions. Mutagenized PCR product was digested with Sac I and Hind III, and ligated into a pUC vector, similarly digested with Sac I and Hind III. Ligations were transformed into E. coli cells, and plated onto M63+ plates containing antibiotic, and 125 mM glufosinate. Clones growing on 125 mM glufosinate plates were retested on 200 mM glufosinate plates, and compared to similar platings of ags1m1 and ags1m2. […] The DNA sequence of the ags open reading frame in pAX3439 was sequenced, and the gene designated as ags1m16. The DNA sequence of ags1m16 is represented herein as SEQ ID NO:31, and the amino acid sequence is represented herein as SEQ ID NO:32. […]
# [4] = system: ATX 20345; assay: Growth of strain ATX 20345 in minimal medium with glufosinate; format: cell-based, Serratia marcescens; conditions: no other nitrogen source, 21° C.
# Experimental: A glufosinate resistant bacterial strain (ATX 20345) was isolated from a soil sample via a soil suspension by placing approximately 0.01 grams soil in 500 μl sterile water. The soil suspension was vortexed, and 20 μl was used to inoculate a 2.5 ml minimal medium culture supplemented with 5 mM glufosinate (Riedel-de Habël, available through Sigma-Aldrich, St. Louis, Mo.). The minimal medium contains the following ingredients (per 1 liter): 10 grams sucrose, 1 ml 0.8M MgSO4, 1 ml 0.1M CaCl2, 1 ml trace elements, 2.38 grams KH2PO4, 5.64 grams K2HPO4. The pH is adjusted to 7.0, and the solution is sterilized with a 0.2 μm filter. Trace elements consist of (per 100 ml) 0.1 g FeSO4.7H2O, 0.5 mg CuSO4.5H2O, 1.0 mg H3BO3, 1.0 mg MnSO4.5H2O, 7.0 mg ZnSO4.7H2O, 1.0 mg MoO3, 4.0 g KCl. No additional nitrogen source was provided in the medium. Cultures were grown at 21° C. on a rotary shaker for 3 days then transferred to fresh minimal medium containing 5 mM glufosinate and incubated at 21° C. After 2 days, the cultures were used to inoculate fresh minimal medium with 5 mM glufosinate. After 2 days, the cultures were plated onto Luria Bertani (LB) agar and then restruck for isolation. […] Colonies on LB agar are pinkish-red, raised, circular, and 1-2 mm in diameter. ATX20345 was typed by fatty acid analysis (as known in the art), and determined to be a strain of Serratia marcescens. […]
smiles,measurement,setting,value
CP(=O)(O)CCC(N)C(=O)O (centres unmarked) [glufosinate],growth in the presence of glufosinate,[1],grew in the presence of glufosinate
same,growth on plates containing 375 mM glufosinate,[2],able to grow
same,growth on 200 mM glufosinate plates,[3]; 200 mM glufosinate,did not grow
same,growth on glufosinate minimal M63+ agar media,"[3]; 2, 10, 20, 50, and 100 mM, DH5a, Clone 2",shown to grow
same,growth of ATX 20345 in the presence of glufosinate,[4],ability to grow in the presence of 5 mM glufosinate; also recorded: grows well through 50 mM
